Experimental data from ChEMBL document CHEMBL1649259, “High prevalence of CTX-M-type beta-lactamases among clinical isolates of Enterobacteriaceae in Bamako, Mali” (2009).

Experiments:
Type in all cases: functional
Escherichia coli [1] = test: Antibacterial activity against CTX-M-15 ESBL producing Escherichia coli assessed as resistant isolates by disk diffusion method
Enterobacter cloacae [2] = test: Antibacterial activity against SHV-12 ESBL producing Enterobacter cloacae assessed as resistant isolates by disk diffusion method
Klebsiella pneumoniae [3] = test: Antibacterial activity against CTX-M-14 ESBL producing Klebsiella pneumoniae assessed as resistant isolates by disk diffusion method
Escherichia coli [4] = test: Antibacterial activity against SHV-12 ESBL producing Escherichia coli assessed as resistant isolates by disk diffusion method
Escherichia coli [5] = test: Antibacterial activity against CTX-M-14 ESBL producing Escherichia coli assessed as resistant isolates by disk diffusion method
Enterobacter cloacae [6] = test: Antibacterial activity against CTX-M-15 ESBL producing Enterobacter cloacae assessed as resistant isolates by disk diffusion method
Morganella morganii = test: Antibacterial activity against CTX-M-14 ESBL producing Morganella morganii assessed as resistant isolates by disk diffusion method
Proteus mirabilis = test: Antibacterial activity against CTX-M-14 ESBL producing Proteus mirabilis assessed as resistant isolates by disk diffusion method
Klebsiella pneumoniae [7] = test: Antibacterial activity against CTX-M-15 ESBL producing Klebsiella pneumoniae assessed as resistant isolates by disk diffusion method
Escherichia coli [8] = test: Antibacterial activity against CTX-M-15 and SHV-12 ESBL producing Escherichia coli assessed as resistant isolates by disk diffusion method
Escherichia coli [9] = test: Antibacterial activity against CTX-M-15 and SHV-27 ESBL producing Escherichia coli assessed as resistant isolates by disk diffusion method
Klebsiella pneumoniae [10] = test: Antibacterial activity against SHV-12 ESBL producing Klebsiella pneumoniae assessed as resistant isolates by disk diffusion method

| Compound | Activity (Escherichia coli [1]) [%] | Activity (Enterobacter cloacae [2]) [%] | Activity (Klebsiella pneumoniae [3]) [%] | Activity (Escherichia coli [4]) [%] | Activity (Escherichia coli [5]) [%] | Activity (Enterobacter cloacae [6]) [%] | Activity (Morganella morganii) [%] | Activity (Proteus mirabilis) [%] | Activity (Klebsiella pneumoniae [7]) [%] | Activity (Escherichia coli [8]) [%] | Activity (Escherichia coli [9]) [%] | Activity (Klebsiella pneumoniae [10]) [%] |
| --- | --- | --- | --- | --- | --- | --- | --- | --- | --- | --- | --- | --- |
| NCC[C@H](O)C(=O)N[C@@H]1C[C@H](N)[C@@H](O[C@H]2O[C@H](CN)[C@@H](O)[C@H](O)[C@H]2O)[C@H](O)[C@H]1O[C@H]1O[C@H](CO)[C@@H](O)[C@H](N)[C@H]1O [AMIKACIN] | 17 | 78 | 0 | 100 | 0 | 0 | 100 | 0 | 20 | 0 | 0 | 50 |
| O=C(N[C@H](CO)[C@H](O)c1ccc([N+](=O)[O-])cc1)C(Cl)Cl [CHLORAMPHENICOL] | 73 | 89 | 67 | 100 | 82 | 100 | 100 | 100 | 40 | 100 | 100 | 83 |
| O=C(O)c1cn(C2CC2)c2cc(N3CCNCC3)c(F)cc2c1=O [CIPROFLOXACIN] | 98 |  | 33 | 0 | 100 |  | 100 | 100 |  | 100 | 100 | 67 |
| CCn1cc(C(=O)O)c(=O)c2ccc(C)nc21 [NALIDIXIC ACID] | 98 | 100 | 67 | 100 | 100 | 100 | 100 | 100 | 93 | 100 | 0 | 83 |
| CCn1cc(C(=O)O)c(=O)c2cc(F)c(N3CCNCC3)cc21 [NORFLOXACIN] | 98 | 89 | 33 | 100 | 100 | 100 | 100 | 100 | 96 | 100 | 100 | 67 |
| CN(C)[C@@H]1C(O)=C(C(N)=O)C(=O)[C@@]2(O)C(O)=C3C(=O)c4c(O)cccc4[C@@](C)(O)[C@H]3C[C@@H]12 [TETRACYCLINE] | 88 | 89 | 67 | 100 | 82 | 100 | 100 | 100 | 84 | 100 | 0 | 50 |
| NC[C@H]1O[C@H](O[C@H]2[C@H](O)[C@@H](O[C@H]3O[C@H](CO)[C@@H](O)[C@H](N)[C@H]3O)[C@H](N)C[C@@H]2N)[C@H](N)C[C@@H]1O [TOBRAMYCIN] | 97 | 89 | 67 | 100 | 100 | 100 | 100 | 0 | 96 | 100 | 100 | 83 |
| COc1cc(Cc2cnc(N)nc2N)cc(OC)c1OC [TRIMETHOPRIM] | 95 | 89 | 100 | 100 | 100 | 100 | 100 | 100 | 100 | 100 | 100 | 100 |
| GENTAMICIN | 83 | 12 | 67 | 0 | 100 | 100 | 100 | 0 | 89 | 100 | 100 | 33 |
